Data taken from patent US20240101496A1, “SYNERGISTIC ACTION OF DCD AND ALKOXYPYRAZOLES AS NITRIFICATION INHIBITORS” (BASF SE, priority 2021, published 2024).

Key:
[1] = system: nitrification in soil Limburgerhof; assay: Inhibition of nitrification in soil, Experiment 1 (incubation 28 days)
Procedure: (§1) The mixtures of the invention were tested as follows in terms of the inhibition of nitrification:
(§2) 100 g soil (soil Limburgerhof with pH(CaCl2) 6.8; 73% sand, 23% silt, 4% clay, which is classified according to FAO as a sandy loam) is filled into 500 ml plastic bottles and is moistened to 50% water holding capacity. The soil is incubated at 20° C. for two weeks prior to the experiments to activate the microbial biomass. 1 ml test solution, containing the components of the mixture in the appropriate concentration (usually from 0.1 to 3.13% (w/w) of fertilized NH4—N), and 10 mg nitrogen in the form of ammoniumsulfate-N(NH4—N) is added to the soil and everything mixed well. Unfertilized controls received 1 ml pure water. Bottles are capped but loosely to allow air exchange. The bottles are then incubated at 20° C. for 0 and 28 days in Experiment 1, and for 0 and 42 days in Experiment 2.
(§3) For analysis, 300 ml of a 1% K2SO4-solution is added to the bottle containing the soil and shaken for 2 hours in a horizontal shaker at 150 rpm. Then the whole solution is filtered through a filter (Macherey-Nagel Filter MN 807 ¼). Ammonium and nitrate content is then analyzed in the filtrate using an autoanalyzer. Ammonium was quantified via an indophenol blue dye at 660 nm, and nitrate via an azo dye at 540 nm.
(§4) The nitrification inhibition is expressed as % of NH4—N recovery from fertilized NH4—N(100%) after subtraction of unfertilized control soil, and as % inhibition of NO3—N formation (% reduction of NO3^− production) according to the formula:
(§5) In every experiment three tests (n=3) regarding the inhibition of nitrification were performed in each case.
(§6) The results were compared with the results calculated by Colby (Colby, S.R., Calculating synergistic and antagonistic responses of herbicide combinations, Weeds, 15, pp. 20-22, 1967) for an additive effect.
(§7) Colby's formula:E=x+y−x·y/100 • E=expected efficacy, expressed in % of the untreated control, when using the mixture comprising the components (i) and (ii) at concentrations a and b; • x=efficacy, expressed in % of the untreated control, when using component (i) at the concentration a; • y=efficacy, expressed in % of the untreated control, when using component (ii) at the concentration b.

[2] = system: nitrification in soil Limburgerhof; assay: Inhibition of nitrification in soil, Experiment 2 (incubation 42 days)
Procedure: as §1, §2, §3, §4, §5, §6, §7

[3] = system: nitrification in soil Limburgerhof; assay: Inhibition of nitrification in soil, mixtures with R^1 is CH2CH3, tested analogously (50 g soil, 4 replicates, 28 and 42 days); details: R^1 is CH2CH3 series
Procedure: as §2, §3
The nitrification inhibition is expressed as % of NH4—N recovery from fertilized NH4—N(100%) after subtraction of unfertilized control soil, and as % inhibition of NO3—N formation (% reduction of NO3^− production) according to the formula: […]
as §6, §7
The following mixtures were tested analogously using 50 g soil Limburgerhof as defined above and ammonium sulfate as fertilizer in an amount N of 10 mg NH4N/100 g soil (number of replicates: 4)

[4] = (i) 0.1, (ii) 0 wt.-% relative to NH4—N
[5] = (i) 0.2, (ii) 0 wt.-% relative to NH4—N
[6] = (i) 0.4, (ii) 0 wt.-% relative to NH4—N
[7] = (i) 0.8, (ii) 0 wt.-% relative to NH4—N
[8] = (i) 0.3, (ii) 0 wt.-% relative to NH4—N
[9] = (i) 0.9, (ii) 0 wt.-% relative to NH4—N
[10] = (i) 2.7, (ii) 0 wt.-% relative to NH4—N
[11] = (i) 0, (ii) 0.5 wt.-% relative to NH4—N
[12] = (i) 0, (ii) 1 wt.-% relative to NH4—N
[13] = (i) 0, (ii) 2 wt.-% relative to NH4—N
[14] = (i) 0, (ii) 0.2 wt.-% relative to NH4—N
[15] = (i) 0, (ii) 1.25 wt.-% relative to NH4—N
[16] = (i) 0, (ii) 3.13 wt.-% relative to NH4—N

Structure (SMILES): COc1cc(C)n[nH]1 [Component (i)]
- % Inhibition of NO3^− production after 28 days, Measured [1, 4]: 0.5%
- % NH4—N recovery from fertilized NH4—N after 28 days, Measured [1, 4]: 0.7%
- % Inhibition of NO3^− production after 28 days, Measured [1, 5]: 25.8%
- % NH4—N recovery from fertilized NH4—N after 28 days, Measured [1, 5]: 17.2%
- % Inhibition of NO3^− production after 28 days, Measured [1, 6]: 44.2%
- % NH4—N recovery from fertilized NH4—N after 28 days, Measured [1, 6]: 41.8%
- % Inhibition of NO3^− production after 28 days, Measured [1, 7]: 67.6%
- % NH4—N recovery from fertilized NH4—N after 28 days, Measured [1, 7]: 62.6%
- % Inhibition of NO3^− production after 42 days, Measured [2, 4]: 2.5%
- % Inhibition of NO3^− production after 42 days, Measured [2, 8]: 12.2%
- % NH4—N recovery from fertilized NH4—N after 42 days, Measured [2, 8]: 1.9%
- % Inhibition of NO3^− production after 42 days, Measured [2, 9]: 42.1%
- % NH4—N recovery from fertilized NH4—N after 42 days, Measured [2, 9]: 29.6%
- % Inhibition of NO3^− production after 42 days, Measured [2, 10]: 83.8%
- % NH4—N recovery from fertilized NH4—N after 42 days, Measured [2, 10]: 64.4%

Structure (SMILES): N#CN=C(N)N [Component (ii), Dicyandiamide]
- % Inhibition of NO3^− production after 28 days, Measured ([1]; (i) 0, (ii) 0.25 wt.-% relative to NH4—N): −1.2%
- % Inhibition of NO3^− production after 28 days, Measured [1, 11]: 7.7%
- % Inhibition of NO3^− production after 28 days, Measured [1, 12]: 3.5%
- % NH4—N recovery from fertilized NH4—N after 28 days, Measured [1, 12]: 0.8%
- % Inhibition of NO3^− production after 28 days, Measured [1, 13]: 16.3%
- % NH4—N recovery from fertilized NH4—N after 28 days, Measured [1, 13]: 9.0%
- % Inhibition of NO3^− production after 42 days, Measured [2, 14]: 9.2%
- % NH4—N recovery from fertilized NH4—N after 42 days, Measured [2, 14]: 0%
- % Inhibition of NO3^− production after 42 days, Measured [2, 11]: 10.4%
- % Inhibition of NO3^− production after 42 days, Measured [2, 15]: 10.0%
- % Inhibition of NO3^− production after 42 days, Measured [2, 16]: 15.4%
- % Inhibition of NO3^− production after 28 days, Measured [3, 15]: 4.3%
- % Inhibition of NO3^− production after 42 days, Measured [3, 15]: 4.0%
- % NH4—N recovery from fertilized NH4—N after 28 days, Measured [3, 15]: 0.0%
- % NH4—N recovery from fertilized NH4—N after 42 days, Measured [3, 15]: 0.0%
- % Inhibition of NO3^− production after 28 days, Measured [3, 16]: 15.7%
- % Inhibition of NO3^− production after 42 days, Measured [3, 16]: 4.0%
- % NH4—N recovery from fertilized NH4—N after 28 days, Measured [3, 16]: 0.0%
- % NH4—N recovery from fertilized NH4—N after 42 days, Measured [3, 16]: 0.0%
